Here are results for one molecule from patent US20120309811A1, “P-GLYCOPROTEIN-SPECIFIC NON-COMPETITIVE PEPTIDE AND PEPTIDOMIMETIC MODULATORS” (UNIVERSITE CLAUDE BERNARD - LYON 1, priority 2009, published 2012).

The inhibition is the percentage by which the read-out fell short of the control. By IC50 is commonly meant the point on the concentration scale where inhibition reaches its midpoint. Read a low IC50 as greater potency in that assay.

Format in all cases: cell-based
For data set [1], the system named is NIH3T3 cells expressing or not expressing P-gp. Put plainly: Cytotoxicity test (MTT), cell survival after 72 h. As for the experimental part: The cells are seeded in a proportion of 10 000 per well in 96-well plates and incubated for 24 hours at 37° C. under 5% CO2. Varied concentrations of compounds Nos 2, 3, 4, 5 and 6, up to 20 times the IC50, are then added. The cytotoxicity is evaluated colorinnetrically with 3-(4,5-dimethylthiazol-2-yl)-2,5-diphenyltetrazolium bromide (MTT).
Increasing concentrations of compound No. 4 or No. 6 are applied to NIH3T3 cells expressing or not expressing P-gp. The cell survival is measured after 72 h and is expressed as a percentage. At 10 times the half-maximum-effect concentration, these two compounds are not toxic. Above this, the toxicity of compound No. 4 remains negligible, while that of compound No. 6 remains limited.

A further data set deals with T1, BCRP (Homo sapiens, UniProt Q9UNQ0).
T1 construct: expressed in transfected cells; host or cells: HEK-293 (ATCC CRL-1573), pcDNA3.1 expression vector (Invitrogen)
T1 sequence (Q9UNQ0 1-655): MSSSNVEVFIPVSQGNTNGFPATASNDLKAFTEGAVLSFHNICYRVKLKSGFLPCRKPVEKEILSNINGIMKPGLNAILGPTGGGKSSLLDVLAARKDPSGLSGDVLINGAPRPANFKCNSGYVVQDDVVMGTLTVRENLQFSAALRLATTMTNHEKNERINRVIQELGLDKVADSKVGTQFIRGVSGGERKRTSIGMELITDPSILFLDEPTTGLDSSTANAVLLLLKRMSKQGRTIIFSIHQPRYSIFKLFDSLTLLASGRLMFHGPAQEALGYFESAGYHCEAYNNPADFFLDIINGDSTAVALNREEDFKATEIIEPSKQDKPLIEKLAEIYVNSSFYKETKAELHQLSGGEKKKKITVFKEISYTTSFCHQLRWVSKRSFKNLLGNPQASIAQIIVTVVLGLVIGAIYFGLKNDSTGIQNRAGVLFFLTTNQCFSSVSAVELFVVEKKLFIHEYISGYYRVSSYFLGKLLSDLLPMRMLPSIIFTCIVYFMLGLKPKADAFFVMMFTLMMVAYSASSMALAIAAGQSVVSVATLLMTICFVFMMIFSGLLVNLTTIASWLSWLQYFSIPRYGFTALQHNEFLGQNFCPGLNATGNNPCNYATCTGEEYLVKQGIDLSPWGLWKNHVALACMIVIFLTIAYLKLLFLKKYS
The experiment in a line: Flow cytometry, inhibition of mitoxantrone efflux in HEK-293 cells transfected with BCRP. The conditions noted are these: 10 μM compound. The text has this: (§1) The HEK-293 human fibroblast line (ATCC cell collection CRL-1573) is transfected with either BCRP (Robey R. W. et al. 2003, Br. J. Cancer 89(10) 1971-1978, [32]) or ABCC1, cloned into the pcDNA3.1 expression vector (Invitrogen), or with the empty pcDNA3.1 vector. The NIH3T3 cell line (ATCC CRL-1658) was stably transfected with pHaMDR1/A (Cardarelli et al. 1995 Cancer Res 55 1086-1091, [33]), which is a retroviral vector that expresses the wild-type MDR1 protein. The BHK-21 cell line (ATCC CCL-10) was transfected with MRP1 cloned into the pcDNA3.1 expression vector, or the empty pcDNA3.1 vector. The cells are maintained in culture in DMEM glutamax II (Invitrogen) supplemented with 10% of fetal bovine serum and 1% of penicillin/streptomycin. The data are processed with Sigmaplot V11 (http://www.systat.com/), and the equation for mathematical adjustment of the experimental data for calculating the IC50 values: f=a×(1−exp(−b×x)) (a=slope, b=intercept on the y-axis).
(§2) The cells expressing P-gp, BCRP and MRP, and their corresponding controls, are placed in the presence of 10 and 2 μM of mitoxantrone for the first two transporters and of 1 μM of daunorubicin for the 3rd. Substrate accumulation is carried out for 30 minutes at 37° C. in the presence or absence of varied concentrations of the molecules tested, at a final DMSO (dimethyl sulfoxide) concentration of 0.5%. After washing with PBS (phosphate buffered saline), the cells are incubated in medium containing the same concentrations of molecules tested as previously, for 1 h at 37° C. The intracellular fluorescence of mitoxantrone and daunorubicin anticancer agent is measured with the FACscan flow cytometer (Becton Dickinson, Mountain, View, Calif.). The drugs are excited at 488 nm. The emission of mitoxantrone is measured at 650 nm, whereas the emission of daunorubicin is measured at 530 nm. The effectiveness of the molecules tested is expressed by equation 1: % effectiveness=100×(FA−FBG)/(FC−FBG), where FA corresponds to the intracellular level of substrate measured in the cells overexpressing ABCG2 (corresponding to the lowest level of fluorescence in the absence of inhibitor), FC corresponds to the fluorescence in the control cells transfected with the empty vector (and therefore to the maximum accumulation of substrate in the cells) and FBG corresponds to the fluorescence measured in the absence of substrate and in the presence of inhibitor.
(§3) The inhibitory effect of the compounds is quantified by measuring, by flow cytometry, the efflux of an anticancer drug transported by the pump under consideration, i.e. mitoxantrone for P-gp and BCRP and daunorubicin for MRP1. It is compared with that of the reference product, reversin 121. The products are tested at 10 μM, then at 2 μM for those which block at least 80% of the efflux of mitoxantrone, and for some, a more complete concentration range is tested so as to establish the concentration value producing 50% inhibition, IC50, as indicated in FIG. 3.
A general note: Flow cytometry measures light scatter and fluorescence of single cells or particles in a stream.

For data set [2], the target named is T2, P-gp (Homo sapiens, UniProt P08183).
T2 construct: expressed in transfected cells; host or cells: NIH3T3 (ATCC CRL-1658), stably transfected with retroviral vector pHaMDR1/A
The experiment in a line: Kinetics of inhibition of daunorubicin efflux produced by P-gp (mode of inhibition). Conditions: Lineweaver & Burke double reciprocal representation. The protocol: FIGS. 6A and 6B show the kinetics of inhibition of daunorubicin efflux produced by P-gp, with compound No. 6. The intracellular daunorubicin fluorescence is measured in the presence of increasing concentrations of No. 6, respectively 0 (circles), 0.12 μM (triangles), 0.22 μM (squares), 0.44 μM (diamonds) and 10 μM (upward-pointing triangles), corresponding to 0, 25, 50, 75 and 100% efflux inhibition effectiveness. FIG. 6A: direct representation, FIG. 6B, Lineweaver & Burke double reciprocal representation.
The intracellular concentration of fluorescent daunorubicin is measured at increasing daunorubicin concentrations, in the presence or absence of fixed concentrations of 0, 0.12 μM, 0.22 μm, 0.44 μM and 10 μM of compound No. 6 corresponding to 0%, 25%, 50%, 75% and 100% efflux inhibition effectiveness according to FIG. 3.

The target of data set [3] is T2, P-gp. The experiment in a line: Flow cytometry, inhibition of mitoxantrone efflux in NIH3T3 cells expressing P-gp.
Source text: as §1, §2, §3

For a further data set, the target named is T3, MRP1 (Homo sapiens, UniProt P33527).
T3 construct: expressed in transfected cells; host or cells: BHK-21 (ATCC CCL-10) with MRP1 in pcDNA3.1; HEK-293 transfected with ABCC1 in pcDNA3.1 is also described
Put plainly: Flow cytometry, inhibition of daunorubicin efflux in cells transfected with MRP1. The conditions noted are these: human, probe daunorubicin, 10 μM compound, read-out: % pump inhibition at 10 μM of compound, MRP1.
Source text: as §1, §2
The inhibitory effect of the compounds is quantified by measuring, by flow cytometry, the efflux of an anticancer drug transported by the pump under consideration, i.e. mitoxantrone for P-gp and BCRP and daunorubicin for MRP1. It is compared with that of the reference product, reversin 121. […]

T2 sequence (P08183 whole entry): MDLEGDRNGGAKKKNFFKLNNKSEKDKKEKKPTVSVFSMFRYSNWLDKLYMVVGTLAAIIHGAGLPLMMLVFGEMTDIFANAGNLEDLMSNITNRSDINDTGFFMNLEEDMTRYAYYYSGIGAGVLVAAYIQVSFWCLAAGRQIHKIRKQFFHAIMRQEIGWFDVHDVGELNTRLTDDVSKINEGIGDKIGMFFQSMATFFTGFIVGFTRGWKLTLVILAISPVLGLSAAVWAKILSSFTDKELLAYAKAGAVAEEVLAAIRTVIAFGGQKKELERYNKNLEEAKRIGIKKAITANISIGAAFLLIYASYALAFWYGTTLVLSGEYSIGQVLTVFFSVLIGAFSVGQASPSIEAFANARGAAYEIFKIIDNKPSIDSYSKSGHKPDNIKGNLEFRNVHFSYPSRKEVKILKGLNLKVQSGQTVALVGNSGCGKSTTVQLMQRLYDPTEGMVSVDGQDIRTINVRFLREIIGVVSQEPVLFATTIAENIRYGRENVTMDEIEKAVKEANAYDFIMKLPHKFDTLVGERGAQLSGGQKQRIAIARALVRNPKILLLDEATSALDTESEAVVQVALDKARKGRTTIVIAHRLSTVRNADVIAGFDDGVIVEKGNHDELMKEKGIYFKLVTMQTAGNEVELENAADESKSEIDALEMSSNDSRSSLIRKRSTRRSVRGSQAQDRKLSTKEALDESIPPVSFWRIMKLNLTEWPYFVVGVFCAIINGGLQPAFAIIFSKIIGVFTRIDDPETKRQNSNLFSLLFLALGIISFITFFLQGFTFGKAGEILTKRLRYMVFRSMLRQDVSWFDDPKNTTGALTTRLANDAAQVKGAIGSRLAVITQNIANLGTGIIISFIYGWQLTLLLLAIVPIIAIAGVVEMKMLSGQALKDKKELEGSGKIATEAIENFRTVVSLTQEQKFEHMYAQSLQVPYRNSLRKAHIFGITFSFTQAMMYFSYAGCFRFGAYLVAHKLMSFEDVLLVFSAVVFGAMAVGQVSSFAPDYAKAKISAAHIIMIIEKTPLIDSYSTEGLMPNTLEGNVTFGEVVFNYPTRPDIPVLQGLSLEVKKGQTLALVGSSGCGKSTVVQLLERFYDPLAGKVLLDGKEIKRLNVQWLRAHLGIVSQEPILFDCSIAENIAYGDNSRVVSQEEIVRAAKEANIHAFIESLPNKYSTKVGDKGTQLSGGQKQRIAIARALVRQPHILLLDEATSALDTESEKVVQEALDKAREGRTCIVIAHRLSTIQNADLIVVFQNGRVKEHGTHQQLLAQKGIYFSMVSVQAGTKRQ
T3 sequence (P33527 whole entry): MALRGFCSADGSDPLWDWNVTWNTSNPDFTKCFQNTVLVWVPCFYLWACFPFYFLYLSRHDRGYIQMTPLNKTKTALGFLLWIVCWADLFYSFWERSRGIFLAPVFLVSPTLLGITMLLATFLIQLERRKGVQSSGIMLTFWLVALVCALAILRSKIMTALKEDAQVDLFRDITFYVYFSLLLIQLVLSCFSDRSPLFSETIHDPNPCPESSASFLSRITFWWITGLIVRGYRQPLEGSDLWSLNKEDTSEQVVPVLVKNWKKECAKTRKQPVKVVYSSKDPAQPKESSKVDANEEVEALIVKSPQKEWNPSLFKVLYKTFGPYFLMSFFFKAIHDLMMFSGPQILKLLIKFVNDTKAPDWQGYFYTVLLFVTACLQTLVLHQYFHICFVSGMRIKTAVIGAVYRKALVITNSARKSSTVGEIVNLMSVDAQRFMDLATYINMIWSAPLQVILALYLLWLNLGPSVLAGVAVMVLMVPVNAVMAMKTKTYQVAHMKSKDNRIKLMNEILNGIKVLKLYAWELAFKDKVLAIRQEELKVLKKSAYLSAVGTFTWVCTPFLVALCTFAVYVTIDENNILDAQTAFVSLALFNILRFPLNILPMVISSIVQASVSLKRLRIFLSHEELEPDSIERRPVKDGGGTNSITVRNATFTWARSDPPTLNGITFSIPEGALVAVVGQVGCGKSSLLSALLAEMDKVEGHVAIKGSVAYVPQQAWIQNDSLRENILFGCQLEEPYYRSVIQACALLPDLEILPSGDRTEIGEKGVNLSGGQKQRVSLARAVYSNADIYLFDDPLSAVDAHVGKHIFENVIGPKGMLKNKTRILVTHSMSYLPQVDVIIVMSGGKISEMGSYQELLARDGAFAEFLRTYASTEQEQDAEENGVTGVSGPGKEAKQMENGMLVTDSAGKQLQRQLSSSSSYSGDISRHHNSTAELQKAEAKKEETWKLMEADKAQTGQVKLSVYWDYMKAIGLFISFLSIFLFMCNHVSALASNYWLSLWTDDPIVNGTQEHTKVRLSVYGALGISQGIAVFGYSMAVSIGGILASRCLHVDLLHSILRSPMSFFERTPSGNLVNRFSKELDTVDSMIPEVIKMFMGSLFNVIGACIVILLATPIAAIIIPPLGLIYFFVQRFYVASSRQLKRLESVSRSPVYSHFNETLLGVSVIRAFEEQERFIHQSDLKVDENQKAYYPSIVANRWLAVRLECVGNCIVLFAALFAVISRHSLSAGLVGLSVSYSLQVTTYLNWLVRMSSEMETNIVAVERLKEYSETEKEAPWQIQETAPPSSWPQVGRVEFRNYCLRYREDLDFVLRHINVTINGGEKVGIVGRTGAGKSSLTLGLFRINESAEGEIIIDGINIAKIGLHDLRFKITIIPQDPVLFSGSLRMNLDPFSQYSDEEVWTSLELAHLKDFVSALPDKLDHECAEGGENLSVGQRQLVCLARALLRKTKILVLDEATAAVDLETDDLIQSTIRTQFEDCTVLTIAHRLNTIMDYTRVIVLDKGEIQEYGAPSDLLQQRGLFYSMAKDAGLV

As for `CC(C)(C)OC(=O)[C@H](CCCCNC(=O)OCc1ccccc1)NC[C@@H]1C[C@@H](OCc2ccccc2)CN1C(=O)OC(C)(C)C` [No. 6, N^α-Boc-trans-L-4-Hyp(Bn)-ψ(CH2-NH)-L-Lys(Z)-OtBu], the cytotoxicity result in data set [1] (above 10 times the half-maximum-effect concentration) is on record as “limited”; in data set [1] (at 10 times the half-maximum-effect concentration), “not toxic”. The “% pump inhibition at 10 μM of compound, BCRP” value on BCRP was found to be 42.3 ± 0.8%. The mechanism of inhibition entry at P-gp [2] is “noncompetitive”. Besides, the “IC50 for P-gp compared with that of reversin 121” value on P-gp [3] was “seven times better”. At P-gp [3] (10 μM compound, mitoxantrone efflux), the “% pump inhibition at 10 μM of compound, P-gp” value was determined as 106.9 ± 23.0%. Further, the inhibition at 1 h, 0.12 µM at P-gp [3] (human, probe mitoxantrone, 0.12 μM compound, according to FIG. 3, read-out: efflux inhibition effectiveness) amounted to 25%. Also, the inhibition at 1 h, 0.44 µM at P-gp [3] (human, probe mitoxantrone, 0.44 μM compound, according to FIG. 3, read-out: efflux inhibition effectiveness) worked out at 75%. Also, the inhibition at 1 h, 10 µM was 100% on P-gp [3] (human, probe mitoxantrone, 10 μM compound, according to FIG. 3, read-out: efflux inhibition effectiveness) and under 10% on MRP1. Besides, the inhibition at 1 h, 0.22 μM on P-gp [3] (human, probe mitoxantrone, 0.22 μm compound, according to FIG. 3, read-out: efflux inhibition effectiveness) came to 50%. At P-gp [3] (mitoxantrone efflux, mathematical adjustment of experimental points), this molecule gave an IC50 of 220 ± 30 nM.
